Assay [1] concerns the target T1, MoATG4 (Pyricularia oryzae, UniProt Q523C3).
T1 construct: gene ATG4
Particulars: 10 uM compound; RT, 10 min preincubation; thiol-reactive, proposed covalent.

In assay [2] the target is T1, MoATG4. The assay can be described thus: biochemical.
Assay [3] has as its target T2, BcATG4 (Botrytis cinerea, UniProt A6SDQ3).
T2 construct: gene atg4
Put plainly: isothermal titration calorimetry.

For assay [4], the target named is T2, BcATG4.

T1 sequence (Q523C3 whole entry, looked up): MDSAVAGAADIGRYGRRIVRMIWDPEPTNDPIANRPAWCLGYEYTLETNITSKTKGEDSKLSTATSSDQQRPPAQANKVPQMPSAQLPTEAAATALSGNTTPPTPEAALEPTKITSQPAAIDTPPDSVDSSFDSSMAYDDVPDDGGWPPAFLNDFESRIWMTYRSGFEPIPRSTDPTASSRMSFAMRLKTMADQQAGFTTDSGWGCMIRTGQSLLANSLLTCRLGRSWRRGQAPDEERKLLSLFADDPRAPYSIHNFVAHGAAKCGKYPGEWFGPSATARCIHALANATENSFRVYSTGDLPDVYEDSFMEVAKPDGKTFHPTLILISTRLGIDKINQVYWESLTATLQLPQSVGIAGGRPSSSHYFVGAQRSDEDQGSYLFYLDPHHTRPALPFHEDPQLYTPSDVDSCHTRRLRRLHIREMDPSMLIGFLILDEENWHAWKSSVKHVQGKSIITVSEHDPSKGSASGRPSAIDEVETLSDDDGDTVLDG
T2 sequence (A6SDQ3 whole entry): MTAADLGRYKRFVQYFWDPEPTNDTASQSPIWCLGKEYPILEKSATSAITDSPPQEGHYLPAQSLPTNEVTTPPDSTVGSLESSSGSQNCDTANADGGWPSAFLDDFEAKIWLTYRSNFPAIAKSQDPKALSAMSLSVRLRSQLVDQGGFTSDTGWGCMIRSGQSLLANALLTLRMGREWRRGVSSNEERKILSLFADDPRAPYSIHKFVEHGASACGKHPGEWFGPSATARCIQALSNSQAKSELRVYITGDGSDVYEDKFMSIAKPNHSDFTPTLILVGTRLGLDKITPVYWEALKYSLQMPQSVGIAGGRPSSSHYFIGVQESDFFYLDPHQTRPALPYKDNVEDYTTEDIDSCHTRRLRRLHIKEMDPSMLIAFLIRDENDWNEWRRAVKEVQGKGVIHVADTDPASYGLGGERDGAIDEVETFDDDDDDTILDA

Take `O=c1c2ccccc2[se]n1-c1ccccc1` [EB, ebselen]: the “in vitro cleavage of Citrine-MoATG8-ShR sensor, western blot” value (“in vitro cleavage” below) in assay [1] was “strong inhibition of the MoATG4-mediated cleavage of MoATG8 by EB and its analogs”. Further, the Kd in assay [2] came out at 0.001 µM; in assay [3] it was 0.0034 µM. Further, the concentration for half-maximal inhibition (IC50) in assay [4] was 0.62 ± 0.03 µM.
On to `O=C1c2ccccc2[Se](=O)N1c1ccccc1` (centres unmarked) [EO, ebselen oxide], for which the “in vitro cleavage” value in assay [1] was “strong inhibition of the MoATG4-mediated cleavage of MoATG8 by EB and its analogs”. The IC50 in assay [4] turned out to be 0.5 ± 0.03 µM.
`Cc1ccc(-n2sc3ccccc3c2=O)cc1` [PT, 2-(4-methylphenyl)−1,2-benzisothiazol-3(2H)-one]: the “in vitro cleavage” value in assay [1] is “strong inhibition of the MoATG4-mediated cleavage of MoATG8 by EB and its analogs”. This compound yielded an IC50 in assay [4] of 1.79 ± 0.24 µM.

The record behind these values is PMC10904834 (Nature Communications, 2024).
